Experiments:
[1] = mice, after administration of 23 mg/kg; cited from earlier work
[2] = system: SKBR3 cells; assay: Three-dimensional culture of SKBR3 cells; type: cell-based; settings: 3D culture 8 days, fatostatin 2 or 20 μM added Day 1
Description: (§1) FIG. 3. Fatostatin inhibits SKBR3 cell growth in 3D Culture. SKBR3 cells were grown in 3D cultures for 8 days treated with (A) DMSO, (B) Fatostatin 2 μM or (C) Fatostatin 20 μM. Drugs were added on Day 1. Representative Differential Interference Contrast (DIC) images are shown. Scale bar, 200 μm.
(§2) Three-dimensional culture was carried out as described in Debnath et al., 2003. Briefly, 8-well chamber slides were lined with 50 μl growth factor reduced Matrigel (BD Biosciences). Cells were then seeded at a density of 5,000 cells/well in Assay Medium (DMEM/F12+2% Horse Serum+10 μg/ml Insulin+0.5 μg/ml Hydrocortisone) containing 2% Matrigel. Cells were refed with Assay Medium containing 2% Matrigel every 4 days. For RNA/protein analysis from 3D cultures, 35 mm plates were lined with 500 μl Matrigel and cells were seeded at a density of 225,000 cells/plate in Assay Medium+2% Matrigel. Cells were harvested using Cell Recovery Solution (BD Biosciences) according to the manufacturer's instructions.
SKBR3 cells were grown in 3D cultures for 8 days treated with DMSO, Fatostatin (2 μM) or (20 μM). Drugs were added on Day 1.

[3] = system: MDA-468 cells; assay: Three-dimensional culture of MDA-468.shp53 cells; type: cell-based; settings: 3D culture 10 days, fatostatin 2 or 20 μM added Day 1
Description: as §1, with “FIG. 4.” for “FIG. 3.”, “inhibits MDA-468” for “inhibits SKBR3”, “Culture. MDA-468.shp53” for “Culture. SKBR3”, “for 10” for “for 8”
as §2
MDA-468.shp53 cells were grown in 3D cultures for 10 days treated with DMSO, Fatostatin (2 μM) or (20 μM). Drugs were added on Day 1.

[4] = system: MDA-231 cells; assay: Three-dimensional culture of MDA-231.shp53 cells; type: cell-based; settings: 3D culture 8 days, fatostatin 2 or 20 μM added day 1
Description: FIG. 2. MDA-231.shp53 cells were grown in 3D cultures for 8 days and treated with (A) DMSO, (B) Fatostatin 2 μM or (C) Fatostatin 20 μM. Drugs were added on day 1. Representative DIC images are shown. Scale bar, 200 μm.
as §2
MDA-231.shp53 cells were grown in 3D cultures for 8 days and treated with DMSO and fatostatin (2 or 20 μM). Drugs were added on day 1. Representative DIC images are shown. FIG. 2. Scale bar, […].

[5] = system: mutant p53 binding to the HMG-CoA reductase gene promoter; assay: Quantitative ChIP of mutant p53 in fatostatin-treated MDA-468.shp53 cells; type: cell-based; settings: fatostatin 20 μM, six independent experiments, p<0.01
Description: FIG. 1. MDA-468.shp53 cells were treated with fatostatin (20 μM) and subjected to ChIP analysis. Data are presented as mean+−SD of six independent experiments. **p<0.01
Chromatin Immunoprecipitation (ChIP) experiments were carried out as described in Beckerman et al., 2009. Briefly, MDA-468 cells were treated with 1% formaldehyde prior to lysis in RIPA Buffer and sonication to yield 500 bp fragments. Protein A/G Sepharose beads were conjugated to anti-p53 antibodies (1801/D0-1) which were subsequently used to immunoprecipitate p53 from 1 mg whole cell lysate. Quantitative ChIP was carried out on an ABI StepOne Plus using SYBR green dye. Genomic Locations of SRE-1 sites within the promoters of sterol biosynthesis genes were located using a literature search: HMGCS 1 (Inoue et al., 1998), HMGCR (Boone et al., 2009), MVK (Bishop et al., 1998), FDPS (Ishimoto et al., 2010), FDFT1 (Inoue et al., 1998), SQLE (Nagai et al., 2002) and CYP51A1 (Halder et al., 2002), respectively. ChIP primer sequences are provided in Table 2 of PCT/US 11/55488 and are incorporated by reference.
MDA-468.shp53 cells were treated with Fatostatin (20 μM) and subjected to ChIP analysis. FIG. 1. Cells in 3D culture were treated on Day 1 or Day 4 of the 3D protocol and refed every 4 days with fresh drug. Data are presented as mean+−SD of six independent experiments. **p<0.01.

Compound: CCCc1cc(-c2nc(-c3ccc(NS(C)(=O)=O)cc3)cs2)ccn1 [N-(4-(2-(2-Propylpyridin-4-yl)thiazol-4-yl)phenyl)methanesulfonamide]
- oral availability [1]: demonstrated

Compound: CCCc1cc(-c2nc(-c3ccc(C)cc3)cs2)ccn1 [fatostatin, 2-Propyl-4-(4-(p-tolyl)thiazol-2-yl) pyridine]
- cell growth in 3D culture [2]: inhibited
- normalizing the abnormal 3D morphology [2]: dramatic effect on normalizing the abnormal 3D morphology
- cell growth in 3D culture [3]: inhibited
- normalizing the abnormal 3D morphology [3]: dramatic effect on normalizing the abnormal 3D morphology
- cell growth in 3D culture [4]: inhibited
- normalizing the abnormal 3D morphology [4]: dramatic effect on normalizing the abnormal 3D morphology
- level of mutant p53 binding to the HMG-CoA reductase gene promoter [5]: significantly reduced

From patent publication US20140364460A1, “USE OF FATOSTATIN FOR TREATING CANCER HAVING A p53 MUTATION” (THE TRUSTEES OF COLUMBIA UNIVERSITY IN THE CITY OF NEW YORK, priority 2012, published 2014)
